{"source": "patent US20030108495A1", "about": "“Cosmetic compositions containing 2,2-dihydroxymethy1-1,3-dioxolanes” (priority 2001, published 2003)", "origin": "cited, not measured here", "tested_on": "moisturized human skin", "settings": "cosmetic composition applied to moisturized human skin", "data": [{"compound": "O=C(CO)CO", "note": "[DHA, 1,3-dihydroxyacetone]", "values": [{"measurement": "time after initial application until tan appearance (brown-colored melanoidins)", "value": "approximately five"}]}]}
